Reference: the NIST ThermoML archive (doi:10.1016/j.fluid.2016.10.024)
Numbers after ± are expanded uncertainties.

Experiment: refractive index (Na D-line) (dimensionless)
Conditions: 293.15 K; 101.33 kPa; Liquid; Standard Abbe refractometry

Row | SMILES | refractive index
1 | CCC(C)O (stereo not drawn) [butan-2-ol] | 1.3978 ± 0.0011
2 | CCC(=O)O [propanoic acid] | 1.3809 ± 0.001
3 | CC(C)=O [acetone] | 1.3588 ± 0.0011
